Laboratory results as given in ChEMBL document CHEMBL1201862, “PubChem BioAssay data set” (2004).
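Following 48 hours of exposure in 96-well plates, responses at five concentrations were used to interpolate endpoints linearly. Here, GI50 denotes the concentration required for 50% inhibition of growth.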 Activity calls are given as the source filed them. Cut-off read from the data, not from the text of the source: active = GI50 up to about 1.1 µM and inactive = higher.

How the values were obtained:
Assay in all cases: inhibition of tumour cell growth, NCI panel, 48 h
[1] = test system: 786-0
[2] = test system: A498
[3] = test system: A549
[4] = test system: ACHN
[5] = test system: CAKI-1
[6] = test system: CCRF-CEM
[7] = test system: COLO 205
[8] = test system: DLD-1
[9] = test system: DMS-114
[10] = test system: DMS-273
[11] = test system: EKVX
[12] = test system: HCT-116
[13] = test system: HCT-15
[14] = test system: HL-60
[15] = test system: HOP-18
[16] = test system: HOP-62
[17] = test system: HOP-92
[18] = test system: HT-29
[19] = test system: IGROV-1
[20] = test system: K562
[21] = test system: KM-20L2
[22] = test system: KM12
[23] = test system: LOX IMVI
[24] = test system: LXFL 529
[25] = test system: M14
[26] = test system: M19-MEL
[27] = test system: Malme-3M
[28] = test system: NCI-H226
[29] = test system: NCI-H460
[30] = test system: NCI-H522
[31] = test system: OVCAR-3
[32] = test system: OVCAR-4
[33] = test system: OVCAR-5
[34] = test system: OVCAR-8
[35] = test system: RPMI-8226
[36] = test system: RXF 393
[37] = test system: RXF 631
[38] = test system: SF-268
[39] = test system: SF-295
[40] = test system: SF-539
[41] = test system: SK-MEL-28
[42] = test system: SK-MEL-2
[43] = test system: SK-MEL-5
[44] = test system: SK-OV-3
[45] = test system: SN12C
[46] = test system: SNB-75
[47] = test system: SNB-78
[48] = test system: SR
[49] = test system: SW-620
[50] = test system: TK-10
[51] = test system: U-251
[52] = test system: UACC-257
[53] = test system: UACC-62
[54] = test system: UO-31
[55] = test system: XF498
[56] = test system: HCC 2998
[57] = test system: MOLT-4
[58] = test system: NCI-H23
[59] = test system: SNB-19

For `O=c1nc(NC2CCCCO2)ccn1CCO` (centres undefined), the GI50 [1] was > 100 µM (inactive), the GI50 [2] was > 100 µM (inactive) and the GI50 [3] was > 100 µM (inactive). For the same compound, the GI50 [4] was > 100 µM (inactive), the GI50 [5] was > 100 µM (inactive) and the GI50 [6] was > 100 µM (inactive). The GI50 [7] was > 100 µM (inactive), the GI50 [8] was > 100 µM (inactive) and the GI50 [9] was > 100 µM (inactive). For the same compound, the GI50 [10] was > 100 µM (inactive), the GI50 [11] was > 100 µM (inactive) and the GI50 [12] was > 100 µM (inactive). The GI50 [13] was greater than 100 µM, the GI50 [14] was > 100 µM (inactive) and the GI50 [15] was > 100 µM (inactive). The GI50 [16] was > 100 µM (inactive), the GI50 [17] was > 100 µM (inactive) and the GI50 [18] was > 100 µM (inactive). For the same compound, the GI50 [19] was > 100 µM (inactive), the GI50 [20] was > 100 µM (inactive) and the GI50 [21] was > 100 µM (inactive). For the same compound, the GI50 [22] was > 100 µM (inactive), the GI50 [23] was > 100 µM (inactive) and the GI50 [24] was > 100 µM (inactive). For the same compound, the GI50 [25] was > 100 µM (inactive), the GI50 [26] was > 100 µM (inactive) and the GI50 [27] was > 100 µM (inactive). For the same compound, the GI50 [28] was > 100 µM (inactive), the GI50 [29] was > 100 µM (inactive) and the GI50 [30] was > 100 µM (inactive). The GI50 [31] was > 100 µM (inactive), the GI50 [32] was > 100 µM (inactive) and the GI50 [33] was > 100 µM (inactive). The GI50 [34] was > 100 µM (inactive), the GI50 [35] was > 100 µM (inactive) and the GI50 [36] was > 100 µM (inactive). For the same compound, the GI50 [37] was > 100 µM (inactive), the GI50 [38] was > 100 µM (inactive) and the GI50 [39] was > 100 µM (inactive). The GI50 [40] was > 100 µM (inactive), the GI50 [41] was > 100 µM (inactive) and the GI50 [42] was > 100 µM (inactive). The GI50 [43] was > 100 µM (inactive), the GI50 [44] was > 100 µM (inactive) and the GI50 [45] was > 100 µM (inactive). For the same compound, the GI50 [46] was > 100 µM (inactive), the GI50 [47] was > 100 µM (inactive) and the GI50 [48] was > 100 µM (inactive). For the same compound, the GI50 [49] was > 100 µM (inactive), the GI50 [50] was > 100 µM (inactive) and the GI50 [51] was > 100 µM (inactive). For the same compound, the GI50 [52] was > 100 µM (inactive), the GI50 [53] was > 100 µM (inactive) and the GI50 [54] was > 100 µM (inactive). For the same compound, the GI50 [55] was 51.4 µM (inactive).
For `O=C(NN1C(=O)CSC1c1cccc(F)c1)c1ccncc1` (centres undefined), the GI50 [2] was > 100 µM (inactive), the GI50 [3] was > 100 µM (inactive) and the GI50 [4] was > 100 µM (inactive). The GI50 [5] was > 100 µM (inactive), the GI50 [6] was > 100 µM (inactive) and the GI50 [7] was > 100 µM (inactive). For the same compound, the GI50 [9] was > 100 µM (inactive), the GI50 [10] was > 100 µM (inactive) and the GI50 [11] was > 100 µM (inactive). For the same compound, the GI50 [56] was > 100 µM (inactive), the GI50 [13] was greater than 100 µM and the GI50 [14] was > 100 µM (inactive). For the same compound, the GI50 [15] was < 0.01 µM (active), the GI50 [18] was > 100 µM (inactive) and the GI50 [19] was > 100 µM (inactive). For the same compound, the GI50 [20] was > 100 µM (inactive), the GI50 [21] was > 100 µM (inactive) and the GI50 [22] was > 100 µM (inactive). The GI50 [23] was > 100 µM (inactive), the GI50 [24] was > 100 µM (inactive) and the GI50 [25] was > 100 µM (inactive). For the same compound, the GI50 [57] was > 100 µM (inactive), the GI50 [27] was > 100 µM (inactive) and the GI50 [58] was > 100 µM (inactive). The GI50 [30] was > 100 µM (inactive), the GI50 [32] was > 100 µM (inactive) and the GI50 [33] was > 100 µM (inactive). For the same compound, the GI50 [34] was > 100 µM (inactive), the GI50 [35] was > 100 µM (inactive) and the GI50 [36] was > 100 µM (inactive). For the same compound, the GI50 [37] was > 100 µM (inactive), the GI50 [38] was > 100 µM (inactive) and the GI50 [39] was > 100 µM (inactive). For the same compound, the GI50 [40] was > 100 µM (inactive), the GI50 [41] was > 100 µM (inactive) and the GI50 [42] was > 100 µM (inactive). For the same compound, the GI50 [43] was > 100 µM (inactive), the GI50 [44] was > 100 µM (inactive) and the GI50 [45] was > 100 µM (inactive). For the same compound, the GI50 [59] was > 100 µM (inactive), the GI50 [46] was > 100 µM (inactive) and the GI50 [47] was > 100 µM (inactive). For the same compound, the GI50 [49] was > 100 µM (inactive), the GI50 [50] was > 100 µM (inactive) and the GI50 [51] was > 100 µM (inactive). For the same compound, the GI50 [52] was > 100 µM (inactive), the GI50 [53] was > 100 µM (inactive) and the GI50 [54] was > 100 µM (inactive). The GI50 [55] was > 100 µM (inactive).
